Blank lines part the entries; values can stand above or below the compound they belong to.
How the values were obtained:
[1] = tested on: hairless mice skin (stratum corneum); assay: Skin surface pH after topical treatment or buffer exposure; assay type: in vivo, mouse; details: free fatty acid co-applied with BPB for three days
Protocol: Animals: Male hairless mice (Skh1/Hr, Charles River Laboratories, Wilmington, Mass.), 8-12 weeks old, were fed Purina mouse diet and water ad libitum. […] Functional experiments were performed on animals aged 6-10 weeks.
The mice were anesthetized with chloral hydrate (Morton Grove Pharmaceuticals, Morton Grove, Ill., USA). After 3 hours immersion at 37° C., the mice were removed, and the remaining buffer was gently blotted off. After 15 minutes, barrier function was determined by measurement of transepidermal water loss (TEWL) with an electrolytic water analyzer (MEECO®, Warrington, Pa.). Surface pH was measured with a flat, glass surface electrode from Mettler-Toledo (Giessen, Germany), attached to a pH meter (Skin pH Meter PH 900, Courage & Khazaka, Cologne, Germany). Individually tested sites were covered with Hilltop Chambers (HtC, nominal volume 200 mL), which were reapplied following each indvidual measurement.

[2] = tested on: hairless mice skin (stratum corneum); assay: Stratum corneum integrity: TEWL after sequential tape stripping; assay type: in vivo, mouse; details: for sPLA2 inhibitor induced abnormalities in stratum corneum integrity and cohesion: fatty acid co-applied with BPB or MJ33; for TEWL rate by the fifth strip: fatty acid co-applied with BPB for three days
Protocol: The mice were anesthetized with chloral hydrate (Morton Grove Pharmaceuticals, Morton Grove, Ill., USA). […] After 15 minutes, barrier function was determined by measurement of transepidermal water loss (TEWL) with an electrolytic water analyzer (MEECO®, Warrington, Pa.). […] Individually tested sites were covered with Hilltop Chambers (HtC, nominal volume 200 mL), which were reapplied following each indvidual measurement.

[3] = tested on: hairless mice skin (stratum corneum); assay: Stratum corneum cohesion: protein removed per D-Squame stripping; assay type: in vivo, mouse; details: for cumulative protein loss at the fifth strip: fatty acid co-applied with BPB for three days
Protocol: Before stripping the stratum corneum, the skin surface was cleaned with a single ethanol wipe. D-Squame tapes then were placed sequentially to the test areas for about 3 sec each, removed with forceps, and stored in glass scintillation vials at 5° C.
The protein content per stripping was determined with the Bio-Rad protein assay kit. […] Each tape was incubated with 1 M NaOH for 1 hour at 37° C. in an incubator shaker at 80 rpm, and neutralized thereafter with 1 mL of 1 M HCl in the scintillation vials. Subsequently, 0.2 mL of this solution was incubated in 0.6 ml distilled water plus 0.2 mL of the Bio-Rad protein dye for 5 minutes in boroscillate tubes. […] An empty D-Squame tape, as well as distilled water incubated with Bio-Rad dye, served as negative controls. The amount of calculated protein was then normalized to skin surface area (μg/cm^2).

NHE1 antiporter [4] = biological target: T1, NHE1 antiporter (Mus musculus, UniProt Q61165); assay: Stratum corneum surface pH after tape stripping with buffers with or without NHE1 inhibitor; assay type: in vivo
T1 construct: from tissue; host or cells: skin (epidermis / stratum corneum) of living hairless mice
Protocol: (§1) Permeability Barrier Studies: Normal hairless mice were treated topically twice a daily for three days with BPB (4 mg/mL) or MJ33 (4 mg/mL) both in propylene glycol:ethanol (7:3 v/v) vehicle, or the vehicle alone on an area of 5-6 cm on the backs and flanks as described previously (Mao-Qiang, M., et al., J. Lipid Res. 36:1926-35 (1995)). The doses employed were shown previously to be non-toxic to Murine skin (Mao-Qiang, M., et al. (1995); Mao-Qiang, M., et al., J. Invest. Dermatol. 106:57-63 (1996)), and to inhibit secretory phospholipase A2 (sPLA2) activity selectively in different cell types (Gelb, M. H., et al., Faseb J. 8:916-24 (1994); Jain, M. K., et al. (1991)). The acidification experiments were performed with 10 mM HEPES-buffer, adjusted to either pH 5.5 or pH 7.4 as follows: One flank of anesthetized mice was immersed on a mesh netting, as described previously (Lee, S. H., et al., J. Clin. Invest. 89:530-8 (1992)). The mice were anesthetized with chloral hydrate (Morton Grove Pharmaceuticals, Morton Grove, Ill., USA). After 3 hours immersion at 37° C., the mice were removed, and the remaining buffer was gently blotted off. After 15 minutes, barrier function was determined by measurement of transepidermal water loss (TEWL) with an electrolytic water analyzer (MEECO®, Warrington, Pa.). Surface pH was measured with a flat, glass surface electrode from Mettler-Toledo (Giessen, Germany), attached to a pH meter (Skin pH Meter PH 900, Courage & Khazaka, Cologne, Germany). Individually tested sites were covered with Hilltop Chambers (HtC, nominal volume […]), which were reapplied following each indvidual measurement.
(§2) The stratum corneum was removed by several strippings with adhesive tape (Tesa, Beiersdorf, Germany) inducing an increase in TEWL rates above baseline (from 0.2 to approximately 7-9 g/m^2/h). Two sites were prepared on each animal, and TEWL and surface pH were measured at 0, 2, 5 and 24 hrs following the stripping and the applications of inhibitors. Biopsies were taken for electron microscopy from treated and control sites, at 5 and 24 hours. For studies in the NHE1 knockout mice, homozygous (−/−) mice were compared to their wildtype (+/+) littermates. Flanks of these mice were shaved, and barrier homostasis was studied 48 hours later. For tape-stripping of these animals, D-Squame disks (Cu-derm, Dallas, Tex.) were used, as Tesa tape was too disruptive for application to shaved, hairy mouse skin.
To investigate the role of NHE 1 in maintaining the pH balance of the stratum corneum, the integrity of murine skin exposed to different buffers and NHE1 inhibitors, was disrupted by tape-stripping. The pH of the exposed skin was measured before and after tape-stripping. Before tape-stripping, the surface pH in all animals was acidic (6.03+/−0.20, n=78). […] At five hours post-tape-strip, these samples were still not fully recovered, remaining more than 0.05 pH units higher than the initial post-tape-strip values.

[5] = tested on: hairless mice skin (stratum corneum); assay: Electron microscopy of lamellar body secretion and extracellular lipid processing; assay type: in vivo, mouse; details: EM of biopsies
Protocol: as §2
Ultrastructural methods: Freshly obtained biopsies from mouse skin were fixed directly in modified Karnovsky's fixative, postfixed with reduced osmium tetroxide (OS04) and then imbedded in an Epon-epoxy mixture. For visualization of lipid-enriched, lamellar bilayer structures, some samples were post fixed in ruthenium tetroxide (RuO4). Sections were cut on a Reichert Ultracut E microtome, counterstained with uranyl acetate and lead citrate, and viewed in a Zeiss 10 CR electron microscope, operated at 60 kV.
Biopsies were taken during time course experiments.

NHE1 antiporter [6] = biological target: T2, NHE1 antiporter (Homo sapiens, UniProt P19634); assay: Intracellular pH (BCECF) and recovery from acid load in cultured human keratinocytes; assay type: cell-based
T2 construct: endogenous in cells; host or cells: second passage cultured human keratinocytes from human foreskin (CHK)
Protocol: Assessment of Intracellular pH: Keratinocytes were plated on glass coverslips and grown in Cascade 154 medium containing 0.07 mM Ca^2+. The coverslips were incubated in 145 μM BCECF-AM ester at room temperature for 5 minutes, then rinsed for 30 minutes in buffer containing either 28 mM HEPES, 136 mM NaCl, 5 mM KCl, 0.07 mM CaCl2 and 10 mM glucose, pH 7.4 or Ringer solution (136 mM NaCl, 5 mM KCl, 0.03 mM Ca2+, 28 mM TES, 14 mM Na HCO3, NaOH to adjust the pH to 7.4, and 10 mM glucose (pH 7.4, 330 mOsm)). BCECF-AM-ester is membrane permeable; once inside cells it is de-esterified by endogenous […], trapping flourescently-active, acidic BCECF inside the cells. The BCECF-loaded cells were placed in a superfusion chamber mounted on a inverted microscope (Nikon). The keratinocytes were superfused with one of the two solutions, and baseline intracellular pH was monitored constantly using a ratiometric method (Paradiio et al (1987) Am J. Physiol. 253:C30-6). Briefly, BCECF loaded cells were alternately illuminated every 10 seconds with brief flashes (200 milliseconds) of 440 nm and 490 nm light. The resultant fluorescence (at 530 nm) from each stimulating wavelength was measured with a CCD camera (Hamamatsu) digitally ratioed, and stored using a software program (Fluor, Universal Imaging Co., West Chester, Pa.). Whereas fluorescence emission at 440 nm excitation remains constant, indicative of dye concentration, emission from 490 nm varies proportionally with changes intracellular pH. By ratioing the two signals, intracellular pH is measured as a brightness signal corrected for the intracellular dye concentration.
Calibration was performed at the end of each experiment by permeablizing the cells to protons with nigericin, thereby equilibrating intra- and extracellular pH. Superfusing the cells with solutions containing 85 mM NaCl, 50 mM KCl, 0.07 mM CaCl2, […] nigericin (a K^+/H^+ exchanger), and either 28 mM HEPES, or 28 mM TES bubbled with 5% CO2, pH 6.8 or 7.8, allowed to calibrate intracellular signals. […]

NHE1 antiporter [7] = biological target: T1, NHE1 antiporter; assay: Barrier recovery (TEWL) after tape stripping; assay type: in vivo; details: for kinetics of barrier recovery after tape-stripping: NHE1 inhibitors, topical, hairless mice
Protocol: as §1, §2
Hairless mice were tape stripped to TEWL of 7-9 g/m^2/h. […] Control areas were covered with Hilltop Chambers containing 10 mM HEPES buffer adjusted to pH 7.4 or pH 5.5 as appropriate. TEWL was measured at 0, 2, 5, and 24 hours post tape-strip. The results are reported as percent barrier recovery from the initial induced defect.

[8] = fatty acid co-applied with MJ33 for three days
[9] = HOE694 in pH 7.4 buffer, two hours post tape strip
[10] = inhibitor in pH 7.4 buffer (amiloride 5 μM, HOE694 7.5 μM), two hours post tape-strip
[11] = inhibitor in pH 7.4 buffer, five hours post tape-strip

T2 sequence (P19634 whole entry): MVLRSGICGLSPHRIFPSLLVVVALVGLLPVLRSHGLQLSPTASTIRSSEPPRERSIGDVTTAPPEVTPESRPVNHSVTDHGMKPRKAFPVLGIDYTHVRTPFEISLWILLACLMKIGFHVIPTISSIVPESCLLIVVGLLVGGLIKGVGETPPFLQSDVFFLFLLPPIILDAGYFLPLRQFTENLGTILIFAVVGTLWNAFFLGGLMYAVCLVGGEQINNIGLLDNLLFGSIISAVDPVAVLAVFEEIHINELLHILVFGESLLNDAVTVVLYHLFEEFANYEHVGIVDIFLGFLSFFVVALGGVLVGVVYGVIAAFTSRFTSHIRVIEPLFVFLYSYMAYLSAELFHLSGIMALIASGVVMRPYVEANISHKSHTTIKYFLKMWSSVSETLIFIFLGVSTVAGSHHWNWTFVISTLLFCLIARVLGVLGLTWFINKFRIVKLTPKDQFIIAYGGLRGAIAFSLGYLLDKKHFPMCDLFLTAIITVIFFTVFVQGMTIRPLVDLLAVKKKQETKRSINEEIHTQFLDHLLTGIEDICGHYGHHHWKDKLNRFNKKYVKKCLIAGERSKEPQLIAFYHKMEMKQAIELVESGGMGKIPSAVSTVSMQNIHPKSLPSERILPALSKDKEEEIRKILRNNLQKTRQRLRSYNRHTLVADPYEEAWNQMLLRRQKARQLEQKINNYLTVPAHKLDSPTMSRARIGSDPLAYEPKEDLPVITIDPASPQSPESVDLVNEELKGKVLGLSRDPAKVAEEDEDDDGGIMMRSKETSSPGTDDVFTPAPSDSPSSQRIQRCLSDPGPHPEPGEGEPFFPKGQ
T1 sequence (Q61165 whole entry): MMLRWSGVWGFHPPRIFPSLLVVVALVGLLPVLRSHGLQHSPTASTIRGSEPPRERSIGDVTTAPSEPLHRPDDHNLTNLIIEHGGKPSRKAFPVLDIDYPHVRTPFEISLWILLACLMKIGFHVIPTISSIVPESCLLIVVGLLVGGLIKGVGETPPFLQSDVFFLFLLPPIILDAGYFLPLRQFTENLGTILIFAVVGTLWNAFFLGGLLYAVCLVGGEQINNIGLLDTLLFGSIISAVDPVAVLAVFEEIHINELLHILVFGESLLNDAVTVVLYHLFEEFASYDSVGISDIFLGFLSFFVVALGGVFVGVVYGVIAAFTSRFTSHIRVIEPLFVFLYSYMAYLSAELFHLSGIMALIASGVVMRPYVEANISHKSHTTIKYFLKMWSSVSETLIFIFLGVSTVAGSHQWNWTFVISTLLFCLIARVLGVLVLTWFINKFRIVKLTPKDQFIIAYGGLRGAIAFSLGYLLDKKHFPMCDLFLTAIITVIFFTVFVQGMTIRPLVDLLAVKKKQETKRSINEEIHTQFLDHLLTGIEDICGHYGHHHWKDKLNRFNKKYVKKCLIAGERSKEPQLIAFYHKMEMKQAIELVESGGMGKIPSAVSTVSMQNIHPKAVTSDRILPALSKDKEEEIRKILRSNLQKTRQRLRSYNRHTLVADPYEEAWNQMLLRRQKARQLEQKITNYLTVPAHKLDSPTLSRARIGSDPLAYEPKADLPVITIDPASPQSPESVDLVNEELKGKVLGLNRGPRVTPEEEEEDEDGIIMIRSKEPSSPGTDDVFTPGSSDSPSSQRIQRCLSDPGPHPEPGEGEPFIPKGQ

SMILES: CCCCC/C=C\C/C=C\CCCCCCCC(=O)O [linoleic acid]
pH of the stratum corneum [1]: 5.77+/−0.10
sPLA2 inhibitor induced abnormalities in stratum corneum integrity and cohesion [2]: to a lesser extent

SMILES: CCCCCCCCCCCCCCCC(=O)O [palmitic acid]
pH of the stratum corneum [1]: 5.40+/−0.14
TEWL rate by the fifth strip [2]: 55-60 g/m^2/h
sPLA2 inhibitor induced abnormalities in stratum corneum integrity and cohesion [2]: prevented emergence
TEWL rate after three sequential tape-strippings [2, 8]: 30-35 g/m^2/h
cumulative protein loss at the fifth strip [3]: about 40 μg/cm^2
loss of protein after three strippings [3, 8]: about 30 μg/cm^2

initial post-tape-strip pH value vs pH 5.5 buffer alone (NHE1 antiporter [4]; HOE694 in pH 5.5 buffer): increased significantly
pH increase over the initial post-tape-strip value (NHE1 antiporter [4]; HOE694 in pH 5.5 buffer, five hours post-tape-strip): more than 0.05 pH units
pH increase over the initial post-tape-strip value (NHE1 antiporter [4]; HOE694 in pH 5.5 buffer, two hours post-tape-strip): more than 0.1 pH units
initial post-tape-strip pH value vs pH 7.4 buffer only (NHE1 antiporter [4]; HOE694 in pH 7.4 buffer): similar
elevated pH at five hours (NHE1 antiporter [4]; HOE694 in pH 7.4 buffer, five hours post tape strip): persisted and even increased
pH increase over the initial post-tape-strip value (NHE1 antiporter [4]; [9]): > 0.1 pH unit
pH increase over the two hour time point of pH 7.4 buffer alone (NHE1 antiporter [4]; [9]): ~0.05 pH units
intracellular pH (NHE1 antiporter [6]; 1.5 μM for 16 hours, dropped from pH 7.05): 6.90 pH
percent barrier recovery (TEWL rate less than the initial induced rate) (NHE1 antiporter [7]; HOE694 in pH 5.5 buffer, 2 hours post tape-strip): 25%
percent barrier recovery (TEWL rate less than the initial induced rate) (NHE1 antiporter [7]; HOE694 in pH 5.5 buffer, 5 hours post tape-strip): 38%
percent barrier recovery (TEWL rate less than the initial induced rate) (NHE1 antiporter [7]; HOE694 in pH 5.5 buffer, 24 hours post tape-strip): 75%
kinetics of barrier recovery after tape-stripping (NHE1 antiporter [7]): delayed barrier recovery
percent barrier recovery (TEWL rate less than the initial induced rate) (NHE1 antiporter [7]; [10]): about 12%
percent barrier recovery (TEWL rate less than the initial induced rate) (NHE1 antiporter [7]; inhibitor in pH 7.4 buffer, 24 hours post tape-strip): about 45%
percent barrier recovery (TEWL rate less than the initial induced rate) (NHE1 antiporter [7]; [11]): 23%
SMILES: CS(=O)(=O)c1cc(C(=O)NC(=N)N)ccc1N1CCCCC1 [HOE694, 3-methylsulfonyl-4-piperidino-benzoylguanidinemethanesulfonate]
extracellular processing of secreted lipids ([5]; HOE694 in pH 5.5 buffer): appeared normal
extracellular processing of secreted lipids ([5]; HOE694 in pH 7.4 buffer): defective
lamellar body formation and secretion ([5]; HOE694 in pH 7.4 buffer): undisturbed

SMILES: Cl.N [NH4Cl, ammonium chloride]
intracellular pH response (NHE1 antiporter [6]; NH4Cl added to cultures of CHK, initial alkalinization, then after dissociation of the ammonium ion): take on an acid load

SMILES: CCCCCCCCCCCCCCCCCC(=O)O [stearic acid]
pH of the stratum corneum [1]: 5.73+/−0.09
TEWL rate by the fifth strip [2]: about 25 g/m^2/h
sPLA2 inhibitor induced abnormalities in stratum corneum integrity and cohesion [2]: prevented emergence
cumulative protein loss at the fifth strip [3]: about 25 μg/cm^2

kinetics of barrier recovery after tape-stripping (NHE1 antiporter [7]): delayed barrier recovery
percent barrier recovery (TEWL rate less than the initial induced rate) (NHE1 antiporter [7]; [10]): about 12%
percent barrier recovery (TEWL rate less than the initial induced rate) (NHE1 antiporter [7]; [11]): about 25%
SMILES: N=C(N)NC(=O)c1nc(Cl)c(N)nc1N [amiloride, N-Amido-3,5-diamino-6-chloropyrazinecarboxamide]
effect after wash out period (NHE1 antiporter [6]; cultured human keratinocytes, wash out of amiloride, recovery from the acid load): non-permanent, non-toxic effect
